This assay deals with IRAK4 (Homo sapiens (Human), UniProt Q9NWZ3). Kind of assay: IRAK-4 AlphaScreen biochemical kinase assay. As to conditions: 1 nM IRAK4, 1 mM ATP, 3.5 h at RT. How it is done:
The biochemical assay is in a AlphaScreen format. The kinase reaction is based on the IRAK-4 phosphorylation of a biotin labeled peptide. The phosphopeptide is incubated with anti-phosphothreonine antibody as well as streptavidin- and protein A-coated beads. Binding of the protein-A coated beads to the antibody and the streptavidin beads to the peptide, leads to an energy transfer from one bead to the other, ultimately producing a luminescent/fluorescent signal.

IRAK4, sequence (Q9NWZ3 whole entry, species assumed): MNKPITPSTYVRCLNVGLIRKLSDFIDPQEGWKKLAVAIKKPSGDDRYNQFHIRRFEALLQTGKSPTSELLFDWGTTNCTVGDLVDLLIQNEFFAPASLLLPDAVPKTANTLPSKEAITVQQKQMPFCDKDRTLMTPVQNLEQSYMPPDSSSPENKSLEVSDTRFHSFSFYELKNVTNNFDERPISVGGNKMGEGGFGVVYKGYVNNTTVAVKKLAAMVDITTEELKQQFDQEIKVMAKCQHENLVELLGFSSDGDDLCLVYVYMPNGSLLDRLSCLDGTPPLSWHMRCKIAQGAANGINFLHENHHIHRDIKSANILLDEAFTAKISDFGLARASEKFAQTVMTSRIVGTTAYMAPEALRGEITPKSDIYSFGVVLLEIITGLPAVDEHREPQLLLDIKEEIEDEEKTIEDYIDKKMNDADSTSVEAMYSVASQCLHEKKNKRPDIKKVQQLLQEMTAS

“1-(6-methylpyridin-2-yl)-1H-pyrazolo[4,3-c]pyridin-7-amine [Example 200]” had an IC50 below 100 nM. The same measure for `CC(N)c1cccc(-c2ccc3cnn(-c4cccc(C(F)(F)F)n4)c3c2)n1` (racemic) [Example 209, 1-(6-(1-(6-(trifluoromethyl)pyridin-2-yl)-1H-indazol-6-yl)pyridin-2-yl)ethanamine]: below 100 nM. The same measure for `CNC(C)c1cccc(-c2ccc3cnn(-c4cccc(C(F)(F)F)n4)c3c2)n1` (single isomer, unassigned) [Example 117, N-methyl-1-(6-(1-(6-(trifluoromethyl)pyridin-2-yl)-1H-indazol-6-yl)pyridin-2-yl)ethanamine]: below 100 nM. The same measure for `CCC[C@H](N)c1cccc(-c2ccc3cnn(-c4cccc(C(C)O)n4)c3c2)n1` (single isomer, unassigned) [Example 417]: below 100 nM; for `CC(N)c1cccc(-c2ccc3cnn(-c4cccc(C(F)(F)F)n4)c3c2)n1` (single isomer, unassigned; isomer a) [Example 83, 1-(6-(1-(6-(trifluoromethyl)pyridin-2-yl)-1H-indazol-6-yl)pyridin-2-yl)ethanamine-isomer A]: below 100 nM; for `CC(N)c1cccc(-c2ccc3cnn(-c4cccc(C(F)(F)F)n4)c3c2)n1` (single isomer, unassigned; isomer b) [Example 84, 1-(6-(1-(6-(trifluoromethyl)pyridin-2-yl)-1H-indazol-6-yl)pyridin-2-yl)ethanamine-isomer B]: below 100 nM. `Cc1cccc(-n2ncc3ccc(-c4cccc(N)n4)cc32)n1` [Example 1, 6-(1-(6-methylpyridin-2-yl)-1H-indazol-6-yl)pyridin-2-amine] displayed a half-maximal inhibitory concentration (IC50) of 100 to 1000 nM. Then `Cc1cccc(-n2ncc3ccc(-c4nccc(N)n4)cc32)n1` [Example 2, 2-(1-(6-methylpyridin-2-yl)-1H-indazol-6-yl)pyrimidin-4-amine], with 1000 to 10000 nM; and `Cc1cccc(-n2ncc3ccc(-c4cc(N)ccn4)cc32)n1` [Example 3, 2-(1-(6-methylpyridin-2-yl)-1H-indazol-6-yl)pyridin-4-amine], with 1000 to 10000 nM. The same measure for `Cc1cccc(-n2ncc3ccc(-c4cccc(CN)n4)cc32)n1` [Example 4, (6-(1-(6-methylpyridin-2-yl)-1H-indazol-6-yl)pyridin-2-yl)methanamine]: 100 to 1000 nM; for `Cc1cccc(-n2ncc3ccc(-c4cc(CN)ccn4)cc32)n1` [Example 5, (2-(1-(6-methylpyridin-2-yl)-1H-indazol-6-yl)pyridin-4-yl)methanamine]: 1000 to 10000 nM.

In turn, `Cc1cccc(-n2ncc3ccc(-c4ccnc(N)c4)cc32)n1` [Example 6, 4-(1-(6-methylpyridin-2-yl)-1H-indazol-6-yl)pyridin-2-amine] showed an IC50 of 100 to 1000 nM. The same measure for `Cc1cccc(-n2ncc3ccc(-c4cccc(N)c4)cc32)n1` [Example 8, 3-(1-(6-methylpyridin-2-yl)-1H-indazol-6-yl)aniline]: 100 to 1000 nM; for `Cc1cccc(-n2ncc3ccc(-c4nccc(CN)n4)cc32)n1` [Example 9, (2-(1-(6-methylpyridin-2-yl)-1H-indazol-6-yl)pyrimidin-4-yl)methanamine]: 100 to 1000 nM. Then `Cc1cccc(-n2ncc3ccc(-c4cncc(N)c4C)cc32)n1` [Example 10, 4-methyl-5-(1-(6-methylpyridin-2-yl)-1H-indazol-6-yl)pyridin-3-amine], with 1000 to 10000 nM; and `Cc1cccc(-n2ncc3ccc(-c4cc(N)cnc4O)cc32)n1` [Example 11, 5-amino-3-(1-(6-methylpyridin-2-yl)-1H-indazol-6-yl)pyridin-2-ol], with 1000 to 10000 nM; and `Cc1cccc(-n2ncc3ccc(-c4cncc(N)c4O)cc32)n1` [Example 12, 3-amino-5-(1-(6-methylpyridin-2-yl)-1H-indazol-6-yl)pyridin-4-ol], with 1000 to 10000 nM.

Turning to `CNc1cncc(-c2ccc3cnn(-c4cccc(C)n4)c3c2)c1` [Example 13, N-methyl-5-(1-(6-methylpyridin-2-yl)-1H-indazol-6-yl)pyridin-3-amine], the half-inhibitory concentration (IC50) was 100 to 1000 nM.

`Cc1cccc(-n2ncc3ccc(-c4cccc(CN(C)C)n4)cc32)n1` [Example 14, N,N-dimethyl-1-(6-(1-(6-methylpyridin-2-yl)-1H-indazol-6-yl)pyridin-2-yl)methanamine] registered a half-maximal inhibitory concentration (IC50) of 100 to 1000 nM.

In turn, `Cc1cccc(-n2ncc3ccc(-c4cccc5c4CCNC5)cc32)n1` [Example 15, 5-(1-(6-methylpyridin-2-yl)-1H-indazol-6-yl)-1,2,3,4-tetrahydroisoquinoline] had an IC50 of 1000 to 10000 nM.

`Cc1cccc(-n2ncc3ccc(-c4cccc5c4CCN(C)C5)cc32)n1` [Example 16, 2-methyl-5-(1-(6-methylpyridin-2-yl)-1H-indazol-6-yl)-1,2,3,4-tetrahydroisoquinoline] showed an IC50 of 1000 to 10000 nM.

In the case of `Cc1cccc(-n2ncc3ccc(-c4cccc5c4CN(C)C5)cc32)n1` [Example 17, 6-(2-methylisoindolin-4-yl)-1-(6-methylpyridin-2-yl)-1H-indazole], the IC50 was 1000 to 10000 nM. The same measure for `CNCc1cccc(-c2ccc3cnn(-c4cccc(C)n4)c3c2)c1` [Example 18, N-methyl-1-(3-(1-(6-methylpyridin-2-yl)-1H-indazol-6-yl)phenyl)methanamine]: below 100 nM; for `N#Cc1cccc(-n2ncc3ccc(-c4cccc(N)c4)cc32)c1` [Example 20, 3-(6-(3-aminophenyl)-1H-indazol-1-yl)benzonitrile]: 100 to 1000 nM; for `Nc1cccc(-c2ccc3cnn(-c4ccccn4)c3c2)c1` [Example 21, 3-(1-(pyridin-2-yl)-1H-indazol-6-yl)aniline]: 100 to 1000 nM.

Compound `N#Cc1cccc(-n2ncc3ccc(-c4cccc(N)c4)cc32)n1` [Example 22, 6-(6-(3-aminophenyl)-1H-indazol-1-yl)picolinonitrile] registered an IC50 below 100 nM. `Cc1cc(C)nc(-n2ncc3ccc(-c4cccc(N)c4)cc32)c1` [Example 23, 3-(1-(4,6-dimethylpyridin-2-yl)-1H-indazol-6-yl)aniline] came in with an IC50 of 1000 to 10000 nM. Then `Cc1ccc(-n2ncc3ccc(-c4cccc(N)c4)cc32)nc1C` [Example 24, 3-(1-(5,6-dimethylpyridin-2-yl)-1H-indazol-6-yl)aniline], with 1000 to 10000 nM; and `Nc1cccc(-c2ccc3cnn(-c4cccc(C(F)(F)F)n4)c3c2)c1` [Example 25, 3-(1-(6-(trifluoromethyl)pyridin-2-yl)-1H-indazol-6-yl)aniline], with below 100 nM. Then `Nc1cncc(-c2ccc3cnn(-c4cccc(C5CC5)n4)c3c2)c1` [Example 27, 5-(1-(6-cyclopropylpyridin-2-yl)-1H-indazol-6-yl)pyridin-3-amine], with below 100 nM; and `Nc1cncc(-c2ccc3cnn(-c4cccc(C5CCC5)n4)c3c2)c1` [Example 28, 5-(1-(6-cyclobutylpyridin-2-yl)-1H-indazol-6-yl)pyridin-3-amine], with 1000 to 10000 nM; and `N#Cc1cccc(-n2ncc3ccc(-c4cncc(N)c4)cc32)n1` [Example 29, 6-(6-(5-aminopyridin-3-yl)-1H-indazol-1-yl)picolinonitrile], with below 100 nM.

`Nc1cncc(-c2ccc3cnn(-c4cccc(C(=O)O)n4)c3c2)c1` [Example 30, 6-(6-(5-aminopyridin-3-yl)-1H-indazol-1-yl)picolinic acid] displayed a concentration for half-maximal inhibition (IC50) of 100 to 1000 nM. The same measure for `NC(=O)c1cccc(-n2ncc3ccc(-c4cncc(N)c4)cc32)n1` [Example 31, 6-(6-(5-aminopyridin-3-yl)-1H-indazol-1-yl)picolinamide]: below 100 nM.

In turn, `CNC(=O)c1cccc(-n2ncc3ccc(-c4cncc(N)c4)cc32)n1` [Example 32, 6-(6-(5-aminopyridin-3-yl)-1H-indazol-1-yl)-N-methylpicolinamide] had an IC50 of 100 to 1000 nM. Then `N#Cc1cccc(-n2ncc3ccc(-c4cncc(N)c4)cc32)c1` [Example 33, 3-(6-(5-aminopyridin-3-yl)-1H-indazol-1-yl)benzonitrile], with 100 to 1000 nM; and `Cc1cc(C#N)cc(-n2ncc3ccc(-c4cncc(N)c4)cc32)n1` [Example 34, 2-(6-(5-aminopyridin-3-yl)-1H-indazol-1-yl)-6-methylisonicotinonitrile], with 100 to 1000 nM. Then `N#Cc1ccnc(-n2ncc3ccc(-c4cncc(N)c4)cc32)c1` [Example 35, 2-(6-(5-aminopyridin-3-yl)-1H-indazol-1-yl)isonicotinonitrile], with 100 to 1000 nM; and `Cc1ccnc(-n2ncc3ccc(-c4cncc(N)c4)cc32)n1` [Example 36, 5-(1-(4-methylpyrimidin-2-yl)-1H-indazol-6-yl)pyridin-3-amine], with below 100 nM. In turn, `N#Cc1ccnc(-n2ncc3ccc(-c4cncc(N)c4)cc32)n1` [Example 37, 2-(6-(5-aminopyridin-3-yl)-1H-indazol-1-yl)pyrimidine-4-carbonitrile] registered an IC50 below 100 nM. The same measure for `Cc1ccc(Cl)c(-n2ncc3ccc(-c4cncc(N)c4)cc32)n1` [Example 38, 5-(1-(3-chloro-6-methylpyridin-2-yl)-1H-indazol-6-yl)pyridin-3-amine]: 1000 to 10000 nM; for `Cc1ccnc(-n2ncc3ccc(-c4cncc(N)c4)cc32)c1` [Example 39, 5-(1-(4-methylpyridin-2-yl)-1H-indazol-6-yl)pyridin-3-amine]: 100 to 1000 nM; for `Nc1cncc(-c2ccc3cnn(-c4cccc(C(F)(F)F)n4)c3c2)c1` [Example 40, 5-(1-(6-(trifluoromethyl)pyridin-2-yl)-1H-indazol-6-yl)pyridin-3-amine]: below 100 nM. The compound `Cc1cccc(-c2ncc3ccc(-c4cncc(N)c4)cn23)n1` [Example 41, 5-(3-(6-methylpyridin-2-yl)imidazo[1,5-a]pyridin-6-yl)pyridin-3-amine] displayed an IC50 below 100 nM.

(Values after US10246456B2, “IRAK4 inhibiting agents” (BIOGEN MA INC., priority 2014, dated 2019).)
